Data published in US20260166128A1, “HUMAN AMYLIN ANALOG, AND DERIVATIVE THEREOF AND USE THEREOF” (priority 2022, published 2026).
Numbered stars: 1 amine (or outer) side, 2 acyl side, 3 side chain; on linkers, the order of the positions; unused ones are H or OH. Bridge positions count the residues as written; N and C are the ends. Square brackets hold non-standard residues; d marks the D form. Side chains are listed from the residue outwards. Peptide text beside a SMILES is read from it. * marks the point of attachment. C20 diacid = O=C(O)CCCCCCCCCCCCCCCCCCC(=O)*; C18 diacid = O=C(O)CCCCCCCCCCCCCCCCC(=O)*; γGlu = O=C(O)[C@H](CCC(=O)[*:2])N[*:1]; Hyp = O=C(O)[C@@H]1C[C@@H](O)CN1; AEEA = NCCOCCOCC(=O)O

target: T1, human amylin receptor (Homo sapiens, UniProt O60896+P30988); experiment: Luciferase assay of amylin derivatives in amylin receptor/CRE-luc CHO cell line; format: cell-based; settings: CHO-K1/Ga15/AMY3 CRE-luc cells, 24 hours incubation, F12 medium containing 10% FBS; read-out: EC50
T1 construct: host or cells: CHO-K1/Ga15/AMY3 cells, further stably transfected with a CRE-luciferase plasmid
T1 sequence (P30988 25-474): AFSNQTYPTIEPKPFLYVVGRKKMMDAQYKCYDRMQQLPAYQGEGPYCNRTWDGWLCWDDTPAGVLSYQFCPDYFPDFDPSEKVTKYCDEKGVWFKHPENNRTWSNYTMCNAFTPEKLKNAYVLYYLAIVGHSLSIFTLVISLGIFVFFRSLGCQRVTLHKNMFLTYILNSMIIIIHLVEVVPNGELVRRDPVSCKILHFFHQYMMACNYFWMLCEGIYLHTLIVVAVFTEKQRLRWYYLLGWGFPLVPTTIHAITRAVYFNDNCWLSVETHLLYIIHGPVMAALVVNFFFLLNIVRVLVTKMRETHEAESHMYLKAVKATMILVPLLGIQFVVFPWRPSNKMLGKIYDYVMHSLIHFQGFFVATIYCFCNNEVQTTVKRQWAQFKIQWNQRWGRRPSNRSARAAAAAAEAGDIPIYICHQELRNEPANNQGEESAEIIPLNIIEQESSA
T1 sequence (O60896 24-148 partner): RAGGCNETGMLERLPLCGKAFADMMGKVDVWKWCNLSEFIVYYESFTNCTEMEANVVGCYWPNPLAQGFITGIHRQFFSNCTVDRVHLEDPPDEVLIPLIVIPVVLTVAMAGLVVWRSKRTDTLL
Protocol: The experiment was intended to detect the activity or efficacy of the amylin derivatives on a human amylin receptor in vitro by luciferase assay.
50 μL of growth medium (F12 medium containing 10% FBS) was added into each well of a white 96-well plate, and the stably transfected amylin/CRE-lue CHO cells were inoculated into the white 96-well plate at a density of about 20,000 cells/well for activity determination.

Going from `CC[C@H](C)[C@H](NC(=O)[C@@H]1CCCN1C(=O)CNC(=O)[C@H](CC(C)C)NC(=O)[C@H](CC(N)=O)NC(=O)[C@H](CCCCNC(=O)COCCOCCNC(=O)COCCOCCNC(=O)CC[C@H](NC(=O)CCCCCCCCCCCCCCCCCCC(=O)O)C(=O)O)NC(=O)[C@H](CO)NC(=O)[C@H](CO)NC(=O)[C@H](Cc1c[nH]cn1)NC(=O)[C@H](CCCNC(=N)N)NC(=O)[C@H](CC(C)C)NC(=O)[C@H](Cc1ccccc1)NC(=O)[C@H](CC(=O)O)NC(=O)[C@H](C)NC(=O)[C@H](CC(C)C)NC(=O)[C@H](CCCNC(=N)N)NC(=O)[C@H](CCC(N)=O)NC(=O)[C@@H](NC(=O)[C@H](C)NC(=O)[C@@H]1CSSC[C@H](NC(=O)[C@@H](N)CCCNC(=N)N)C(=O)N[C@@H](CC(N)=O)C(=O)N[C@@H]([C@@H](C)O)C(=O)N[C@@H](C)C(=O)N[C@@H]([C@@H](C)O)C(=O)N1)[C@@H](C)O)C(=O)N[C@@H](CC(C)C)C(=O)N1CCC[C@H]1C(=O)N1CCC[C@H]1C(=O)N[C@H](C(=O)N[C@@H](CC(N)=O)C(=O)N[C@H](C(=O)NCC(=O)N[C@@H](CO)C(=O)N[C@@H](CC(N)=O)C(=O)N[C@H](C(=O)N1C[C@H](O)C[C@H]1C(N)=O)[C@@H](C)O)C(C)C)[C@@H](C)O` [PD091] (H-RCNTATCATQRLADFLRHSSK([AEEA-AEEA-γGlu-C20 diacid])NLGPILPPTNVGSNT[Hyp]-NH2; disulfide 2-7) to `CC[C@H](C)[C@H](NC(=O)[C@@H]1CCCN1C(=O)CNC(=O)[C@H](CC(C)C)NC(=O)[C@H](CC(N)=O)NC(=O)[C@H](CC(N)=O)NC(=O)[C@H](CCCCNC(=O)COCCOCCNC(=O)COCCOCCNC(=O)CC[C@H](NC(=O)CCCCCCCCCCCCCCCCCCC(=O)O)C(=O)O)NC(=O)[C@H](CO)NC(=O)[C@H](Cc1c[nH]cn1)NC(=O)[C@H](CCCNC(=N)N)NC(=O)[C@H](CC(C)C)NC(=O)[C@H](Cc1ccccc1)NC(=O)[C@H](CC(=O)O)NC(=O)[C@H](C)NC(=O)[C@H](CC(C)C)NC(=O)[C@H](CCCNC(=N)N)NC(=O)[C@H](CCC(N)=O)NC(=O)[C@@H](NC(=O)[C@H](C)NC(=O)[C@@H]1CSSC[C@H](NC(=O)[C@@H](N)CCCNC(=N)N)C(=O)N[C@@H](CC(N)=O)C(=O)N[C@@H]([C@@H](C)O)C(=O)N[C@@H](C)C(=O)N[C@@H]([C@@H](C)O)C(=O)N1)[C@@H](C)O)C(=O)N[C@@H](CC(C)C)C(=O)N1CCC[C@H]1C(=O)N1CCC[C@H]1C(=O)N[C@H](C(=O)N[C@@H](CC(N)=O)C(=O)N[C@H](C(=O)NCC(=O)N[C@@H](CO)C(=O)N[C@@H](CC(N)=O)C(=O)N[C@H](C(=O)N1C[C@H](O)C[C@H]1C(N)=O)[C@@H](C)O)C(C)C)[C@@H](C)O` [PD095] (H-RCNTATCATQRLADFLRHSK([AEEA-AEEA-γGlu-C20 diacid])NNLGPILPPTNVGSNT[Hyp]-NH2; disulfide 2-7), the EC50 rises from 0.03 nM to 0.047 nM (1.6-fold).

Compared with `CC[C@H](C)[C@H](NC(=O)[C@@H]1CCCN1C(=O)CNC(=O)[C@H](CC(C)C)NC(=O)[C@H](CC(N)=O)NC(=O)[C@H](CCCCNC(=O)CC[C@H](NC(=O)CCCCCCCCCCCCCCCCC(=O)O)C(=O)O)NC(=O)[C@H](CO)NC(=O)[C@H](CO)NC(=O)[C@H](Cc1c[nH]cn1)NC(=O)[C@H](CCCNC(=N)N)NC(=O)[C@H](CC(C)C)NC(=O)[C@H](Cc1ccccc1)NC(=O)[C@H](CC(=O)O)NC(=O)[C@H](C)NC(=O)[C@H](CC(C)C)NC(=O)[C@H](CCCNC(=N)N)NC(=O)[C@H](CCC(N)=O)NC(=O)[C@@H](NC(=O)[C@H](C)NC(=O)[C@@H]1CSSC[C@H](NC(=O)[C@@H](N)CCCNC(=N)N)C(=O)N[C@@H](CC(N)=O)C(=O)N[C@@H]([C@@H](C)O)C(=O)N[C@@H](C)C(=O)N[C@@H]([C@@H](C)O)C(=O)N1)[C@@H](C)O)C(=O)N[C@@H](CC(C)C)C(=O)N1CCC[C@H]1C(=O)N1CCC[C@H]1C(=O)N[C@H](C(=O)N[C@@H](CC(N)=O)C(=O)N[C@H](C(=O)NCC(=O)N[C@@H](CO)C(=O)N[C@@H](CC(N)=O)C(=O)N[C@H](C(=O)N1C[C@H](O)C[C@H]1C(N)=O)[C@@H](C)O)C(C)C)[C@@H](C)O` [PD092] (H-RCNTATCATQRLADFLRHSSK([γGlu-C18 diacid])NLGPILPPTNVGSNT[Hyp]-NH2; disulfide 2-7), `CC[C@H](C)[C@H](NC(=O)[C@@H]1CCCN1C(=O)CNC(=O)[C@H](CC(C)C)NC(=O)[C@H](CC(N)=O)NC(=O)[C@H](CC(N)=O)NC(=O)[C@H](CCCCNC(=O)CC[C@H](NC(=O)CCCCCCCCCCCCCCCCC(=O)O)C(=O)O)NC(=O)[C@H](CO)NC(=O)[C@H](Cc1c[nH]cn1)NC(=O)[C@H](CCCNC(=N)N)NC(=O)[C@H](CC(C)C)NC(=O)[C@H](Cc1ccccc1)NC(=O)[C@H](CC(=O)O)NC(=O)[C@H](C)NC(=O)[C@H](CC(C)C)NC(=O)[C@H](CCCNC(=N)N)NC(=O)[C@H](CCC(N)=O)NC(=O)[C@@H](NC(=O)[C@H](C)NC(=O)[C@@H]1CSSC[C@H](NC(=O)[C@@H](N)CCCNC(=N)N)C(=O)N[C@@H](CC(N)=O)C(=O)N[C@@H]([C@@H](C)O)C(=O)N[C@@H](C)C(=O)N[C@@H]([C@@H](C)O)C(=O)N1)[C@@H](C)O)C(=O)N[C@@H](CC(C)C)C(=O)N1CCC[C@H]1C(=O)N1CCC[C@H]1C(=O)N[C@H](C(=O)N[C@@H](CC(N)=O)C(=O)N[C@H](C(=O)NCC(=O)N[C@@H](CO)C(=O)N[C@@H](CC(N)=O)C(=O)N[C@H](C(=O)N1C[C@H](O)C[C@H]1C(N)=O)[C@@H](C)O)C(C)C)[C@@H](C)O` [PD096] (H-RCNTATCATQRLADFLRHSK([γGlu-C18 diacid])NNLGPILPPTNVGSNT[Hyp]-NH2; disulfide 2-7) is 2.6-fold higher in EC50: 0.016 nM for the first, 0.042 nM for the second.

Compared with `CC[C@H](C)[C@H](NC(=O)[C@@H]1CCCN1C(=O)CNC(=O)[C@H](CC(C)C)NC(=O)[C@H](CC(N)=O)NC(=O)[C@H](CC(N)=O)NC(=O)[C@H](CCCCNC(=O)COCCOCCNC(=O)COCCOCCNC(=O)CC[C@H](NC(=O)CCCCCCCCCCCCCCCCC(=O)O)C(=O)O)NC(=O)[C@H](CO)NC(=O)[C@H](Cc1c[nH]cn1)NC(=O)[C@H](CCCNC(=N)N)NC(=O)[C@H](CC(C)C)NC(=O)[C@H](Cc1ccccc1)NC(=O)[C@H](CC(=O)O)NC(=O)[C@H](C)NC(=O)[C@H](CC(C)C)NC(=O)[C@H](CCCNC(=N)N)NC(=O)[C@H](CCC(N)=O)NC(=O)[C@@H](NC(=O)[C@H](C)NC(=O)[C@@H]1CSSC[C@H](NC(=O)[C@@H](N)CCCNC(=N)N)C(=O)N[C@@H](CC(N)=O)C(=O)N[C@@H]([C@@H](C)O)C(=O)N[C@@H](C)C(=O)N[C@@H]([C@@H](C)O)C(=O)N1)[C@@H](C)O)C(=O)N[C@@H](CC(C)C)C(=O)N1CCC[C@H]1C(=O)N1CCC[C@H]1C(=O)N[C@H](C(=O)N[C@@H](CC(N)=O)C(=O)N[C@H](C(=O)NCC(=O)N[C@@H](CO)C(=O)N[C@@H](CC(N)=O)C(=O)N[C@H](C(=O)N1C[C@H](O)C[C@H]1C(N)=O)[C@@H](C)O)C(C)C)[C@@H](C)O` [PD097] (H-RCNTATCATQRLADFLRHSK([AEEA-AEEA-γGlu-C18 diacid])NNLGPILPPTNVGSNT[Hyp]-NH2; disulfide 2-7), `CC[C@H](C)[C@H](NC(=O)[C@@H]1CCCN1C(=O)CNC(=O)[C@H](CC(C)C)NC(=O)[C@H](CC(N)=O)NC(=O)[C@H](CC(N)=O)NC(=O)[C@H](CO)NC(=O)[C@H](CCCCNC(=O)COCCOCCNC(=O)COCCOCCNC(=O)CC[C@H](NC(=O)CCCCCCCCCCCCCCCCCCC(=O)O)C(=O)O)NC(=O)[C@H](Cc1c[nH]cn1)NC(=O)[C@H](CCCNC(=N)N)NC(=O)[C@H](CC(C)C)NC(=O)[C@H](Cc1ccccc1)NC(=O)[C@H](CC(=O)O)NC(=O)[C@H](C)NC(=O)[C@H](CC(C)C)NC(=O)[C@H](CCCNC(=N)N)NC(=O)[C@H](CCC(N)=O)NC(=O)[C@@H](NC(=O)[C@H](C)NC(=O)[C@@H]1CSSC[C@H](NC(=O)[C@@H](N)CCCNC(=N)N)C(=O)N[C@@H](CC(N)=O)C(=O)N[C@@H]([C@@H](C)O)C(=O)N[C@@H](C)C(=O)N[C@@H]([C@@H](C)O)C(=O)N1)[C@@H](C)O)C(=O)N[C@@H](CC(C)C)C(=O)N1CCC[C@H]1C(=O)N1CCC[C@H]1C(=O)N[C@H](C(=O)N[C@@H](CC(N)=O)C(=O)N[C@H](C(=O)NCC(=O)N[C@@H](CO)C(=O)N[C@@H](CC(N)=O)C(=O)N[C@H](C(=O)N1C[C@H](O)C[C@H]1C(N)=O)[C@@H](C)O)C(C)C)[C@@H](C)O` [PD099] (H-RCNTATCATQRLADFLRHK([AEEA-AEEA-γGlu-C20 diacid])SNNLGPILPPTNVGSNT[Hyp]-NH2; disulfide 2-7) is 2.4-fold higher in EC50: 0.014 nM for the first, 0.033 nM for the second.

`CC[C@H](C)[C@H](NC(=O)[C@@H]1CCCN1C(=O)CNC(=O)[C@H](CC(C)C)NC(=O)[C@H](CC(N)=O)NC(=O)[C@H](CC(N)=O)NC(=O)[C@H](CO)NC(=O)[C@H](CCCCNC(=O)CC[C@H](NC(=O)CCCCCCCCCCCCCCCCCCC(=O)O)C(=O)O)NC(=O)[C@H](Cc1c[nH]cn1)NC(=O)[C@H](CCCNC(=N)N)NC(=O)[C@H](CC(C)C)NC(=O)[C@H](Cc1ccccc1)NC(=O)[C@H](CC(=O)O)NC(=O)[C@H](C)NC(=O)[C@H](CC(C)C)NC(=O)[C@H](CCCNC(=N)N)NC(=O)[C@H](CCC(N)=O)NC(=O)[C@@H](NC(=O)[C@H](C)NC(=O)[C@@H]1CSSC[C@H](NC(=O)[C@@H](N)CCCNC(=N)N)C(=O)N[C@@H](CC(N)=O)C(=O)N[C@@H]([C@@H](C)O)C(=O)N[C@@H](C)C(=O)N[C@@H]([C@@H](C)O)C(=O)N1)[C@@H](C)O)C(=O)N[C@@H](CC(C)C)C(=O)N1CCC[C@H]1C(=O)N1CCC[C@H]1C(=O)N[C@H](C(=O)N[C@@H](CC(N)=O)C(=O)N[C@H](C(=O)NCC(=O)N[C@@H](CO)C(=O)N[C@@H](CC(N)=O)C(=O)N[C@H](C(=O)N1C[C@H](O)C[C@H]1C(N)=O)[C@@H](C)O)C(C)C)[C@@H](C)O` [PD098] (H-RCNTATCATQRLADFLRHK([γGlu-C20 diacid])SNNLGPILPPTNVGSNT[Hyp]-NH2; disulfide 2-7) showed an EC50 of 0.077 nM.
